The text below walks through data of publication PMC4710522, “A Novel Triazolopyridine-Based Spleen Tyrosine Kinase Inhibitor That Arrests Joint Inflammation” (PLoS ONE, 2016).

Structures are written as SMILES. Where two headings read alike, the source gives them in different places.

In one series the target is T1, RetA (Homo sapiens, UniProt P07949).
T1 construct: purchased Life Technologies PV3819
Kind of series: Ret A HTRF assay. The settings on record: in-house, mean ± SD. Type of series: biochemical. On the procedure:
CC-509 was prepared at a concentration of 1.5 mM in DMSO followed by 3-fold dilutions in Greiner […] polypropylene plates. A 1:4 dilution of compounds by 8 μL/well transfer from the polypropylene plates to 24 μL/well Assay Buffer (50 mM HEPES pH 7.6, 1 mM DTT, 10 mM MgCl2, 0.01% Triton X-100, 0.01% BSA and 0.1 mM EDTA) in Costar 3710 384 well black plates was then performed. Kinases (13 μL/well of 31 ng/ml RetA (Life Technologies, Grand Island, NY PV3819) in Assay Buffer) or Assay Buffer only (background controls) were added to Costar 3710 384-well black plates for the HTRF assays and compound (2 μL/ well) was added from the 1:4 dilution plate. […] Time resolved fluorescence was read in assay plates on a PerkinElmer EnVision. […] The IC50 value was determined as described in the data fitting section below.
For the TEL-Syk assay, the intensity values for the 700 and 800 channel were exported as text files in ActivityBase (IDBS, Guildford, UK) to derive the ratios that reflect kinase activity. […] For the JAK2 HEL and Ramos NFAT β-lactamase assays, the fluorescence values obtained at 460 nm and 530 nm were exported into ActivityBase to calculate response ratios. […] Evans blue dye extravasation was expressed as mean ± SEM and % inhibition for the test article groups was normalized to the cromolyn positive control. […] Data is expressed as mean ± SEM of each group with n = 6–12. […]
Background: In TR-FRET formats the signal depends on donor and acceptor labels being close together.

Series [1] can be described thus: plasma compound exposure in rat CIA study. Type of series: in vivo. The settings on record: for AUC(0-t): female, Lewis, rat, plasma, po, read-out: AUC0-24h in plasma after the last day of dosing. As for the experimental part: Female Lewis rats (150 – 170g; Charles River Laboratories) were house standard shoebox cages, fed Harlan-Tekald diet and water ad libitum and maintained on a 12h light/dark cycle. For induction of arthritis rats were anesthetized with isofluorane and their entire dorsal area shaved. Rats were injected (intradermal) with 100 μl of equal volumes of collagen (Chrondrex, Redmond, WA) and IFA (Sigma Chemicals, St. Louis, MO) emulsion in 10 sites across the dorsal region. At disease onset 11 days following immunization animals were randomized into groups based on their ankle measurements and test article administration was initiated. Rats were dosed orally with vehicle (20% Captisol®), Indomethacin (Sigma Chemicals, St. Louis, MO, 2mg/kg) or CC-509 (15, 25mg/kg QD or 15mg/kg BID) in a dose volume of 5ml/kg. […] On the last day of the study animals were split into 2 cohorts and bleed twice via tail bleed under isofluorane anesthesia and a third terminal bleed following CO2 asphyxiation to obtain a time course of plasma compound exposure at 30minutes, 1, 2, 4, 8 and 24h after the last dose of CC-509.

For a further series, the target named is Syk (Homo sapiens, UniProt P43405). Kind of series: Syk HTRF assay. The arrangement: purchased Carna Biosciences 08-176. The class given is biochemical. The settings on record: in-house, mean ± SD, n = 8. As for the experimental part:
CC-509 was prepared at a concentration of 1.5 mM in dimethyl sulfoxide (DMSO) followed by 3-fold dilutions in Greiner 384 well polypropylene plates. […] Time resolved fluorescence was read in assay plates on a PerkinElmer EnVision. […] The IC50 value was determined as described in the data fitting section below.
For the TEL-Syk assay, the intensity values for the 700 and 800 channel were exported as text files in ActivityBase (IDBS, Guildford, UK) to derive the ratios that reflect kinase activity. […] For the JAK2 HEL and Ramos NFAT β-lactamase assays, the fluorescence values obtained at 460 nm and 530 nm were exported into ActivityBase to calculate response ratios. […] Evans blue dye extravasation was expressed as mean ± SEM and % inhibition for the test article groups was normalized to the cromolyn positive control. […] The mean data from each group was plotted and either the AUC(day 11–18) or % inhibition on day 18 was calculated. Data is expressed as mean ± SEM of each group with n = 6–12. […]

The conditions of series [2]: male rats; cited from earlier work.

T1 sequence (P07949 29-1114): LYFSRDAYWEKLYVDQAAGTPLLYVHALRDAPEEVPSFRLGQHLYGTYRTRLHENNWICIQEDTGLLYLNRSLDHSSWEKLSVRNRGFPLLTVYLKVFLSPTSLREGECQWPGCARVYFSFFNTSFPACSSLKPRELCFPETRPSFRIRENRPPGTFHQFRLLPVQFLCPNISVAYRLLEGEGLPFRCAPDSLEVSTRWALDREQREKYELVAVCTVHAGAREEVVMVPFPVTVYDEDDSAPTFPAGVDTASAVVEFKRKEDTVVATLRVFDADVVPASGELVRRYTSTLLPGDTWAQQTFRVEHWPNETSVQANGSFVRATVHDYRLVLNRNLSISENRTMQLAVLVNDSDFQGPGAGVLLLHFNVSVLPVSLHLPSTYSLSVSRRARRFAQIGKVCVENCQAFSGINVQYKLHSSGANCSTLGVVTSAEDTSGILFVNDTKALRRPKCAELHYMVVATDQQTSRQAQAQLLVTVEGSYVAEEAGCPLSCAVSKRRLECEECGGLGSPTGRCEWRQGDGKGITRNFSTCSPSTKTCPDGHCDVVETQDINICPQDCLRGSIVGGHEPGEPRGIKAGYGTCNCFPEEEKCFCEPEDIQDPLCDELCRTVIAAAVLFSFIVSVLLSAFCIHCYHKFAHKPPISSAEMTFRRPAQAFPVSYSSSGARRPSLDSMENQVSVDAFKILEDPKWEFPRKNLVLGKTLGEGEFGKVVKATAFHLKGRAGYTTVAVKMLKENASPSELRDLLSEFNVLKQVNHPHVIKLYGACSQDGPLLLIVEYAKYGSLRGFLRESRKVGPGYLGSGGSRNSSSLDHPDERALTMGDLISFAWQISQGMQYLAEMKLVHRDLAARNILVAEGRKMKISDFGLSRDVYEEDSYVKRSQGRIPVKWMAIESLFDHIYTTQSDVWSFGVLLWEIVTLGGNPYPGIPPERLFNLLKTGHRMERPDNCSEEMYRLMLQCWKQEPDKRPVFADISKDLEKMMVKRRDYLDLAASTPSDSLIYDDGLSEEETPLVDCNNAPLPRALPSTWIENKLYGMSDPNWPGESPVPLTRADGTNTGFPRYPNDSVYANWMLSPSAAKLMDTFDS

Regarding `c1cc(CC2CCOCC2)n2nc(Nc3ccc4c(NC5CCOCC5)n[nH]c4c3)nc2c1` [CC-509, [3-(2H-3,4,5,6-tetrahydropyran-4-ylamino)(1H-indazol-6-yl)][5-(2H-3,4,5,6-tetrahydropyran-4-ylmethyl)(2H-1,2,4-triazolo[1,5-a]pyridin-2-yl)]amine], the IC50 came to 750 ± 190 nM at RetA and 26 ± 6 nM against Syk. For the same compound, the AUC(0-t) came out at 60 µM·h in series [1] (15 mg/kg, 15 mg/kg b.i.d.); 22 µM·h in series [1] (15 mg/kg, 15 mg/kg q.d.); 45 µM·h in series [1] (25 mg/kg, 25 mg/kg q.d.). The same compound yielded a minimal efficacious exposure in series [1] (rat CIA) of 45 µM·h.
Turning to `COc1cc(Nc2ncc(F)c(Nc3ccc4c(n3)NC(=O)C(C)(C)O4)n2)cc(OC)c1OC` [R406, reference compound], in series [2], the exposure producing myelosuppression is 120 µM·h.

For orientation: IC50 means the concentration needed to halve the response being measured. A high value points to weaker potency in that assay.
